According to patent US11352604B2, “Method of making cardiomyocytes from human pluripotent cells” (Wisconsin Alumni Research Foundation, priority 2016, dated 2022):
Blank lines part the entries; values can stand above or below the compound they belong to.

Key:
[1] = tested on: day 5 cardiac progenitor cells; assay: Propidium iodide cell cycle flow cytometry; assay type: cell-based, human; settings: DAPT with pI:C, day 5
Description: Propidium iodide staining was performed on ethanol-fixed cells of the 19-9-11 iPS cell line with a low flow rate and linear mode fluorescence according to a previously published protocol (Darzynkiewicz and Juan, 2001).

hPSC-CMs [2] = assay: Cardiomyocyte yield and purity in GiWi differentiation; assay type: cell-based, human; settings: DAPT early (day 3-5 or 3-7) and extended (day 3-10 or 3-16)
Description: To differentiate cardiomyocytes from hPSCs, the small molecule temporal modulation of the Wnt pathway (GiWi) monolayer protocol was used essentially as previously described (Lian et al., 2012). Human embryonic or induced pluripotent stem cells were dissociated with Versene (Thermo Fisher Scientific) for 6 minutes at 37° C., pipetted up and down 40 times, counted with a hemocytometer, spun down at 100×g for 5 minutes, and resuspended and seeded for differentiation at 1.5 million cells per well in 6 well plates or 0.4 million per well in 12 well plates in mTeSR® on stem-cell verified Matrigel® (WiCell) containing 10 μM Y-27632 ROCK-inhibitor (Tocris). After four days in mTeSR® (WiCell), at which point cells grew to 100 percent confluence, medium was switched to RPMI supplemented with B27 supplement not containing insulin (Thermo Fisher Scientific) and containing 12 μM of the Wnt agonist CHIR99021 (Tocris) for exactly 24 hours. Media was then changed to RPMI supplemented with B27 not containing insulin for exactly 48 hours. Then medium was then switched at day 3 to RPMI supplemented with B27 not containing insulin and containing 5 μM IWP2 (Tocris). At day 5, media was switched to RPMI supplemented with B27 not containing insulin for two days. At day 7 and every three days afterward, medium was replaced with RPMI supplemented with B27 containing insulin (Thermo Fisher Scientific). […]

hPSC-CMs [3] = assay: Cardiomyocyte yield from dissociated and replated progenitors; assay type: cell-based, human; settings: DAPT
Description: For dissociation of day 5 cells (for destructive analyses or live cell replating experiments), progenitors were dissociated with Versene (Thermo Fisher Scientific) for 10 minutes at 37° C., pipetted up and down 40 times, and then neutralized 1:1 v/v versene solution with “K20” medium (DMEM/F12 with 1×NEAA, 1× Glutamine, 0.1 mM (3-mercaptoethanol, and 20% Knockout Serum Replacer by volume, all Thermo Fisher Scientific). For destructive analyses, pellets were made by centrifugation at 1.1×1000 g for 5 minutes, aspiration of medium supernatant, snap-freezing in liquid nitrogen, and kept at −80° C. for until pellet lysis for DNA, protein, or RNA isolation.
For replating of progenitors and microtissue formation, after neutralization and cell counting, 0.8 million day-5 progenitors per well were spun down at 100×g as above and resuspended and plated in 1 mL K20 with 10 μM Y-27632 ROCK-inhibitor (Tocris) into Synthemax® II-SC coated 12 well plates (Corning). Media was then changed daily in 2 mL of “K2” (same formulation as K20 above, but with just 2% Knockout Serum Replacer), and changed daily. Differentiating hPSC-CMs from replated progenitors in this protocol beat by day 8 to 12.

cTnT isoforms = assay: Top-down mass spectrometry of cTnT isoforms (adult to fetal AUC ratio); assay type: cell-based, human; settings: DAPT day 3-16
Description: Freshly isolated CMs from the H9-cTnT-GFP (FIG. 1) or 19-9-11 (FIG. 2) hPSC cell lines were washed with Ca^2+-free DPBS and centrifuged at 1,100 g for 5 minutes (min) and the wash solvent was removed. The cells were first homogenized in 50 μl HEPES solution (25 mM HEPES, pH 7.4, 2.5 mM EDTA, 100 mM NaF, 1 mM DTT, 10 mM L-methionine, 1 mM PMSF, 1 mM Na3VO4, protease inhibitor (Abcam) and phosphatase inhibitors). The homogenates were centrifuged at 17,000 g for 20 min and the HEPES extract containing predominately cytosolic proteins was collected. The remaining pellets were homogenized in 40 μl trifluoroacetic acid (TFA) solution (1% TFA, 5 mM tris(2-carboxyethyl)phosphine, 5 mM L-methionine) and centrifuged at 17,000 g for 20 min. The TFA extract containing predominantly the sarcomeric proteins was collected. Bradford protein assays were performed to determine the protein concentration. The sarcomeric protein-enriched extracts were diluted to 100 ng/μl for Liquid chromatography (LC)-MS analysis.
500 ng of each sarcomeric protein-enriched extract was injected to a home-packed reverse phase chromatography (RPC) column (PLRP-S, 10 μm particle size, 1000 A pore size, 500 μm inner diameter, 25 cm long), and the proteins were separated with a gradient of 5-95% mobile phase B (0.1% formic acid in 50:50 acetonitrile:ethanol) (mobile phase A: 0.1% formic acid in H2O) at a constant flowrate of 12 μl/min. The eluting proteins were analyzed by a high-resolution quadrupole-time of flight (q-TOF) mass spectrometer (Impact II, Bruker Daltonics) via electrospray ionization. The mass spectra were collected at a scan rate of 0.5 Hz for all samples being analyzed. Analyses of top-down mass spectra were performed using the vender-specific software DataAnalysis 3.2 (Bruker Daltonics).
Quantification of the sarcomeric protein isoforms was performed as previously described. […] The area under curve (AUC) of the EIC of a specific protein isoform represents the abundance of the selected protein isoform. […] Relative quantification of protein isoform expression was measured by the ratio of the AUCs.

hPSC-CMs [4] = assay: Optical action potential measurement (RH237); assay type: cell-based, human; settings: DAPT day 3-16
Description: After hPSC-CM dissociation, day 30 to 60 lactate-purified hPSC-CMs from the 19-9-11 cell line were plated as 80 μL drops on areas of cover glass previously coated in drops of Synthemax® working solution of 80 μL (Corning) in the K20/2 dissociation and replating technique described above. After at least two days in K2 medium, the fast-equilibrating voltage-sensitive dye RH237 at 1 μM was added and live cells imaged in the cover glass in a Leica confocal microscope. Video files of individual cells were taken and filtered with the 50th FIR filter at a cutoff frequency of 128 Hz. The resulting action potentials were analyzed for rise time and voltage velocity in MATLAB. Individual cells were considered as replicates for statistical purposes and came from 4 cell preparations.

[5] = tested on: hPSC-derived cardiac progenitors and hPSC-CMs; assay: RT-qPCR gene expression in progenitors or cardiomyocytes; assay type: cell-based, human
Description: Frozen cell pellets from progenitors or cardiomyocytes in the 19-9-11 iPS cell line were thawed and RNA isolated using RNeasy spin columns with on-column DNase treatment according to the manufacturer's instructions (Qiagen). 500 ng of isolated RNA was used as template for reverse transcription using Biorad iScript RT supermix according to the manufacturer's instructions. 2.5 ng of derived cDNA was then used as template in qPCR with Taqman® primers bearing FAM-MGB dyes for genes of interest in a 20 μL reaction with Taqman® universal PCR supermix and the manufacturer's recommended cycling conditions (Thermo Fisher Scientific).

[6] = tested on: hPSC-CM sheets from replated progenitors; assay: Video edge detection / beating analysis of cardiomyocyte sheets; assay type: cell-based, human; settings: DAPT present day3-day20
Description: (§1) For quantification of spatial regularity and graphical presentation of time averaged beating in microtissue from the H9-cTnT-GFP (FIGS. 9A, C) or 19-9-11 (FIG. 9B) cell lines, .avi video files of low-powered (2.5× magnification) fields were recorded at a resolution of 1268×720 and a frame rate of 20/second. These videos were exported into a series of sequential .tiff files using Adobe Premiere, and then analyzed in MATLAB using previously described coding algorithms (Huebsch et al., 2015). Calculations of beat rate (before and after ivrabradine, […] for 2 hours, Sigma) were performed manually in the 19-9-11 cell line and multifocal patterns in untreated progenitor-derived sheets were represented as the average rate of beating for all foci present in a field.

H9-TnT-GFP hPSC-CMs = assay: cTnT-GFP reporter imaging of hPSC-CMs after NFκB inhibition; assay type: cell-based, human; settings: QNZ day 3-5 concurrent with pI:C
Description: Antibodies: NFKappaB (Abcam) and phosphorylated IKappaB (Abcam). Antibodies were used at a dilution of 1:1000. NF-κB inhibitor: 40 nM QNZ (Selleckchem).

NF-κB activation = settings: cited from earlier work
HCN4 channel = target: T1, HCN4 channel (Homo sapiens, UniProt Q9Y3Q4); assay: Spontaneous beat rate of cardiomyocyte sheets before and after ivrabradine; assay type: cell-based
T1 construct: endogenous in cells; host or cells: replated progenitor-derived cardiomyocyte sheets, 19-9-11 iPS cell line
T1 sequence (Q9Y3Q4 1-1203): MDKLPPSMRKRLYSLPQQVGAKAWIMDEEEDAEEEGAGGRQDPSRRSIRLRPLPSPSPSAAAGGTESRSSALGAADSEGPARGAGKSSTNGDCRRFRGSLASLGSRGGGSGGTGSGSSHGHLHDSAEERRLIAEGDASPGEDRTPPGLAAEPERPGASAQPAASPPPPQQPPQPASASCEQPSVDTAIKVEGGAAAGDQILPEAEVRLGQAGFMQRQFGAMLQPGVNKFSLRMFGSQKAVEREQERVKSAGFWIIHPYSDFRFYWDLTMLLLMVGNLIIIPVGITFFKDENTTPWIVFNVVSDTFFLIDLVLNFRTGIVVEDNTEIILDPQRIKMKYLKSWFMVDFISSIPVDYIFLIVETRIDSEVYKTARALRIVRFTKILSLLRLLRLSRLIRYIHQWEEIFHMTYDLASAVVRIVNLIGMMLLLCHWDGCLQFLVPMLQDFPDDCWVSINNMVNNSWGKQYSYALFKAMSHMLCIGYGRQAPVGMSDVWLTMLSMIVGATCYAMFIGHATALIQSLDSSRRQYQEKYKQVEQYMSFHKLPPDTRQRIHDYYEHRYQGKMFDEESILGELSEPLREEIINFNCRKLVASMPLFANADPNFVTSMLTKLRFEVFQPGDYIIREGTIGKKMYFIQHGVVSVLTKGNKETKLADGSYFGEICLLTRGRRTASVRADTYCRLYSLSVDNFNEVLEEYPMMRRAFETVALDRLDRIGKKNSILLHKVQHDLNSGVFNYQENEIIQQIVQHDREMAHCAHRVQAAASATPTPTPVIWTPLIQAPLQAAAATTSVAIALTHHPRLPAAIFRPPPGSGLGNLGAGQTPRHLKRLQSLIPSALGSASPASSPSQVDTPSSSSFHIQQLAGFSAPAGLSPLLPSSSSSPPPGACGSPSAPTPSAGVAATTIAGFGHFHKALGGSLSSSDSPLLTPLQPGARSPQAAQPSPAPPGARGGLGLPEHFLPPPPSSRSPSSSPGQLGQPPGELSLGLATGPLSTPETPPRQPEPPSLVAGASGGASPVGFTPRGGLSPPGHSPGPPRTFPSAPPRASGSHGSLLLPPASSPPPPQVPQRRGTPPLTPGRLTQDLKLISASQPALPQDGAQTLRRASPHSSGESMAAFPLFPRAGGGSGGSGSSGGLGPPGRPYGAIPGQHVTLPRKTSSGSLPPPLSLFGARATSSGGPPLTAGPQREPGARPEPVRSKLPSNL
Description: as §1

SMILES: C[C@H](NC(=O)Cc1cc(F)cc(F)c1)C(=O)N[C@H](C(=O)OC(C)(C)C)c1ccccc1 [DAPT]
- effect on increased cell cycle activity of primed progenitors [1]: blocked the increased cell cycle activity
- effect on pI:C-increased hPSC-CM yield (hPSC-CMs [2]): blocked pI:C's effect on hPSC-CM yield
- effect on increased yield from replated primed progenitors (hPSC-CMs [3]): blocked this increased yield
- effect on protein isoform change toward adult cTnT 6 and 11 caused by pI:C (cTnT isoforms): abrogated
- effect on increase in optical upstroke velocity (decreased rise time) from primed progenitors (hPSC-CMs [4]): blocked only with DAPT treatment from day 3-16
- effect on pI:C-increased expression of cardiomyocyte maturation genes (αMHC, cTnI, cardiac actin, ATP5a, RYR2, SERCA) ([5]; DAPT day 3-5 or day 3-16): reversed the increased expression
- effect on pI:C downregulation of cardiac fibroblast genes ([5]; Notch inhibition (DAPT) with pI:C): accentuated
- contraction pattern of hPSC-CM sheets from pI:C-primed progenitors [6]: multifocal and disorganized without forming waves of contraction

SMILES: Nc1ccc2ncnc(NCCc3ccc(Oc4ccccc4)cc3)c2c1 [QNZ]
- effect on formation of TnT-GFP positive cardiomyocyte collections after pIC treatment (H9-TnT-GFP hPSC-CMs): blocked the generation of large collections of TnT-GFP positive cardiomyocytes
- inhibitory activity toward both NF-κB activation and TNF-α production (NF-κB activation): potent inhibitory activity
- effect on pI:C-increased maturation gene expression ([5]; day 20 pPSC-CM, QNZ with pI:C): reversed

- effect on spontaneous contractions (HCN4 channel; cardiomyocyte sheets from primed progenitors, 5 μm for 2 hours): blocked the spontaneous contractions
- effect on beat rate (HCN4 channel; cardiomyocyte sheets from untreated progenitors, 5 μM for 2 hours): little effect
SMILES: COc1cc2c(cc1OC)CC(=O)N(CCCN(C)C[C@H]1Cc3cc(OC)c(OC)cc31)CC2 [ivrabradine]
